Data reported in US20240059703A1 (AMGEN INC., priority 2021, published 2024).

Legend:
KRAS G12C = KRAS G12C (Homo sapiens (Human), UniProt P01116, C118A/G12C); assay: 2 h coupled exchange assay; assay type: biochemical; conditions: Avg 2 h Coupled exchange IC50, 2 h compound pre-incubation
Method: The term “2 h coupled exchange assay” or “20 h coupled exchange assay” as used herein refers to the assay described in the Section entitled “BIOLOGICAL EVALUATION.”

[1] = tested on: MIA PaCa-2 (human pancreatic carcinoma) cells; assay: Cell Viability Assay (CellTiter-Glo), MIA PaCa-2; assay type: cell-based
Method: Serially-diluted compound or DMSO was added to the cells, and plates were incubated at 37° C., 5% CO2 for 72 h. Cell viability was measured using a CellTiter-Glo® Luminescent Cell Viability Assay kit (Promega) according to the manufacturer's protocol. The luminescence signal of treated samples was normalized to DMSO control, and data were analyzed using a 4-parameter logistic model to calculate IC50 values.

[2] = tested on: A549 (human lung carcinoma) cells; assay: Cell Viability Assay (CellTiter-Glo), A549; assay type: cell-based
Method in brief: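 Luminescent ATP read-out (CellTiter-Glo) after 72 h compound treatment of cells seeded overnight at 1.67E+04 cells/mL in RPMI 1640, 10% FBS; signal relative to DMSO, IC50 by 4-parameter logistic model.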

[3] = SOS-mediated nucleotide exchange

Chain of KRAS G12C (P01116 other isoform, or with tags, fused parts or gaps G12C/C118A): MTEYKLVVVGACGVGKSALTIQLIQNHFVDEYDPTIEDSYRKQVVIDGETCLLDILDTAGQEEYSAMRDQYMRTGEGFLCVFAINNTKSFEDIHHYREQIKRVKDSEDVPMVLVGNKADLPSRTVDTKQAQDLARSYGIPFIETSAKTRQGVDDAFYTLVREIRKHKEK

Row | Compound | IC50 (KRAS G12C; [3]) [nM] | IC50 ([1]; Homo sapiens, MIA PaCa-2, 72 h) [nM] | IC50 ([2]; Homo sapiens, A549, 72 h) [nM] | IC50 (KRAS G12C) [nM] | IC50 ([1]; 72 h) [nM] | IC50 ([2]; 72 h) [nM]
1 | C=CC(=O)N1CC2(CCN(c3nc4c(c(-c5cccc(O)c5)c3C#N)CCC(c3scnc3C)=C4)C2)C1 [Example 23-55, 4-(3-hydroxyphenyl)-7-(4-methyl-1,3-thiazol-5-yl)-2-(2-(2-propenoyl)-2,6-diazaspiro[3.4]octan-6-yl)-5,6-dihydro-3-quinolinecarbonitrile] |  | 2120 | > 5000 | 120 |  | 
2 | C=CC(=O)N1CC2(CCN(c3nc4cc(-c5scnc5C)cnc4c(-c4ccccc4Cl)c3C#N)C2)C1 (single isomer, unassigned) [Example 20-9, (P)-4-(2-chlorophenyl)-7-(4-methyl-1,3-thiazol-5-yl)-2-(2-(2-propenoyl)-2,6-diazaspiro[3.4]octan-6-yl)-1,5-naphthyridine-3-carbonitrile] |  |  |  | 42 | 200 | 3190
3 | C=CC(=O)N1CC2(CCN(c3nc4c(c(-c5ccccc5C)c3C#N)CC[C@@H](c3scnc3C)C4)C2)C1 (single isomer, unassigned) [Example 23-3] |  |  | > 5000 | 107 | 2520 | 
4 | C=CC(=O)N1CC2(CCN(c3nc4cc(-c5sc(CO)nc5C)cnc4c(-c4ccccc4Cl)c3C#N)C2)C1 [Example 19-9, 4-(2-chlorophenyl)-7-(2-(hydroxymethyl)-4-methyl-1,3-thiazol-5-yl)-2-(2-(2-propenoyl)-2,6-diazaspiro[3.4]octan-6-yl)-1,5-naphthyridine-3-carbonitrile] |  | 204 | > 5000 | 56 |  | 
5 | C=CC(=O)N1CC2(CCN(c3nc4c(c(-c5c(C)ccc6cnn(C)c56)c3C)CCC(C)(C)C4)C2)C1 (single isomer, unassigned) [Example 2-21, (P)-1-(6-(4-(1,6-dimethyl-1H-indazol-7-yl)-3,7,7-trimethyl-5,6,7,8-tetrahydro-2-quinolinyl)-2,6-diazaspiro[3.4]octan-2-yl)-2-propen-1-one] | 161 | 441 | > 5000 |  |  | 
6 | C=CC(=O)N1CC2(CCN(c3nc4c(c(-c5c(C)ccc6[nH]ncc56)c3C#N)CC3CC43)C2)C1 (stereo not drawn) [Example 13-81] | 98 | 319 | > 5000 |  |  | 
7 | C=CC(=O)N1CC2(CCN(c3nc4cc(-n5cncc5C)ccc4c(-c4ccccc4F)c3C#N)C2)C1 [Example 17-6, 4-(2-fluorophenyl)-7-(5-methyl-1H-imidazol-1-yl)-2-(2-(2-propenoyl)-2,6-diazaspiro[3.4]octan-6-yl)-3-quinolinecarbonitrile] |  | 2190 | 4370 | 149 |  | 
8 | C=CC(=O)N1CC2(CCN(c3nc4c(c(-c5c(C)c(Cl)cc6cnn(C)c56)c3C)CCN(C(C)C)C4)C2)C1 [Example 12-22, 1-(6-(4-(5-chloro-1,6-dimethyl-1H-indazol-7-yl)-3-methyl-7-(2-propanyl)-5,6,7,8-tetrahydro-1,7-naphthyridin-2-yl)-2,6-diazaspiro[3.4]octan-2-yl)-2-propen-1-one] | 37 | 44 | > 5000 |  |  | 
9 | C=CC(=O)N1CC2(CCN(c3nc4c(c(-c5ncccc5C)c3C#N)CC[C@](C)(c3scnc3C)C4)C2)C1 [Example 23-9, (7S)-7-methyl-4-(3-methyl-2-pyridinyl)-7-(4-methyl-1,3-thiazol-5-yl)-2-(2-(2-propenoyl)-2,6-diazaspiro[3.4]octan-6-yl)-5,6,7,8-tetrahydro-3-quinolinecarbonitrile] |  | 916 | 16200 | 531 |  | 
10 | C=CC(=O)N1CC2(CCN(c3nc4cc(-c5scnc5C)cnc4c(-c4ccc(F)cc4F)c3C#N)C2)C1 [Example 19-5, 4-(2,4-difluorophenyl)-7-(4-methyl-1,3-thiazol-5-yl)-2-(2-(2-propenoyl)-2,6-diazaspiro[3.4]octan-6-yl)-1,5-naphthyridine-3-carbonitrile] |  | 452 | > 5000 | 96 |  | 
11 | C=CC(=O)N1CC2(CCN(c3nc4c(c(-c5c(C)ccc6[nH]ncc56)c3C#N)CC(C)(C)C4)C2)C1 [Example 13-12, 6,6-dimethyl-4-(5-methyl-1H-indazol-4-yl)-2-(2-(2-propenoyl)-2,6-diazaspiro[3.4]octan-6-yl)-6,7-dihydro-5H-cyclopenta[b]pyridine-3-carbonitrile] | 29 | 157 | > 5000 |  |  | 

Continued, values first:

Row | IC50 (KRAS G12C; [3]) [nM] | IC50 ([1]; Homo sapiens, MIA PaCa-2, 72 h) [nM] | IC50 ([2]; Homo sapiens, A549, 72 h) [nM] | IC50 (KRAS G12C) [nM] | IC50 ([1]; 72 h) [nM] | IC50 ([2]; 72 h) [nM] | Compound
12 | 91 | 425 | 3420 |  |  |  | C=CC(=O)N1CC2(C1)CN(c1nc3c(c(-c4c(C)ccc5[nH]ncc45)c1C#N)CCC(C)(C)C3)CC2(F)F [Example 2-105, 2-(8,8-difluoro-2-(2-propenoyl)-2,6-diazaspiro[3.4]octan-6-yl)-7,7-dimethyl-4-(5-methyl-1H-indazol-4-yl)-5,6,7,8-tetrahydro-3-quinolinecarbonitrile]
13 |  |  |  | 114 | 619 | > 5000 | C=CC(=O)N1CC2(CCN(c3nc4c(c(-c5ccccc5Cl)c3C#N)CCN(c3scnc3C)C4)C2)C1 (single isomer, unassigned) [Example 21-23, (M)-4-(2-chlorophenyl)-7-(4-methyl-1,3-thiazol-5-yl)-2-(2-(2-propenoyl)-2,6-diazaspiro[3.4]octan-6-yl)-5,6,7,8-tetrahydro-1,7-naphthyridine-3-carbonitrile]
14 |  | 2640 | > 5000 | 121 |  |  | C=CC(=O)N1CC2(CCN(c3nc4ccccc4c(-c4c(C)ccc5[nH]ncc45)c3Cl)C2)C1 [Example 27-2, 1-(6-(3-chloro-4-(5-methyl-1H-indazol-4-yl)-2-quinolinyl)-2,6-diazaspiro[3.4]octan-2-yl)-2-propen-1-one]
15 |  | 76 | > 5000 | 67 |  |  | C=CC(=O)N1CC2(CCN(c3nc4c(c(-c5cc(O)cc6ccccc56)c3C)COC(C)(C)C4)C2)C1 [Example 14-26, 1-(6-(4-(3-hydroxy-1-naphthalenyl)-3,7,7-trimethyl-7,8-dihydro-5H-pyrano[4,3-b]pyridin-2-yl)-2,6-diazaspiro[3.4]octan-2-yl)-2-propen-1-one]
16 | 123 | 442 | > 5000 |  |  |  | C=CC(=O)N1CC2(CCN(c3nc4c(c(-c5c(C)ccc6cnn(C)c56)c3C#N)COC(C)(C)C4)C2)C1 [Example 13-49, 4-(1,6-dimethyl-1H-indazol-7-yl)-7,7-dimethyl-2-(2-(2-propenoyl)-2,6-diazaspiro[3.4]octan-6-yl)-7,8-dihydro-5H-pyrano[4,3-b]pyridine-3-carbonitrile]
17 | 53 | 20 | > 5000 |  |  |  | C=CC(=O)N1CC2(CCN(c3cc4c(c(-c5c(C)c(Cl)cc6cnn(C)c56)c3Cl)OCCC4)C2)C1 [Example 2-110, 1-(6-(7-chloro-8-(5-chloro-1,6-dimethyl-1H-indazol-7-yl)-3,4-dihydro-2H-chromen-6-yl)-2,6-diazaspiro[3.4]octan-2-yl)-2-propen-1-one]
18 | 402 | 2280 | > 25000 |  |  |  | C=CC(=O)N1CC2(CCN(c3cn4c(C)cnc4c(-c4c(C)ccc5[nH]ncc45)c3C#N)C2)C1 [Example 1-37, 3-methyl-8-(5-methyl-1H-indazol-4-yl)-6-(2-(2-propenoyl)-2,6-diazaspiro[3.4]octan-6-yl)imidazo[1,2-a]pyridine-7-carbonitrile]
19 |  | 299 | > 5000 | 85 |  |  | C=CC(=O)N1CC2(CCN(c3nc4c(c(-c5ncccc5F)c3C#N)CC[C@@H](c3scnc3C)C4)C2)C1 (racemic) [Example 23-57, (7R)-4-(3-fluoro-2-pyridinyl)-7-(4-methyl-1,3-thiazol-5-yl)-2-(2-(2-propenoyl)-2,6-diazaspiro[3.4]octan-6-yl)-5,6,7,8-tetrahydro-3-quinolinecarbonitrile (7S)-4-(3-fluoro-2-pyridinyl)-7-(4-methyl-1,3-thiazol-5-yl)-2-(2-(2-propenoyl)-2,6-diazaspiro[3.4]octan-6-yl)-5,6,7,8-tetrahydro-3-quinolinecarbonitrile]
20 |  | 174 | > 5000 | 167 |  |  | C=CC(=O)N1CC2(CCN(c3nc4c(c(-c5cc(O)ccc5Cl)c3C#N)CCN(C3CCCN(C)C3)C4)C2)C1 [Example 21-36, 4-(2-chloro-5-hydroxyphenyl)-7-((3R)-1-methyl-3-piperidinyl)-2-(2-(2-propenoyl)-2,6-diazaspiro[3.4]octan-6-yl)-5,6,7,8-tetrahydro-1,7-naphthyridine-3-carbonitrile 4-(2-chloro-5-hydroxyphenyl)-7-((3S)-1-methyl-3-piperidinyl)-2-(2-(2-propenoyl)-2,6-diazaspiro[3.4]octan-6-yl)-5,6,7,8-tetrahydro-1,7-naphthyridine-3-carbonitrile]
21 | 16 | 143 | > 5000 |  |  |  | C=CC(=O)N1CC2(CCN(c3nc4c(c(-c5cc(O)cc6ccccc56)c3C#N)COC(C)(C)C4)C2)C1 (single isomer, unassigned) [Example 13-43, (P)-4-(3-hydroxy-1-naphthalenyl)-7,7-dimethyl-2-(2-(2-propenoyl)-2,6-diazaspiro[3.4]octan-6-yl)-7,8-dihydro-5H-pyrano[4,3-b]pyridine-3-carbonitrile]
